Values joined by “and” are separate entries in the source; they are usually repeats but may differ in a detail not shown here. Equal values may be shown once.
Experiments:
[1] = system: anti-isostere antibody of ddATP; test: Radioimmunological determination (RIA) of the specificity of the anti-isostere antibody of ddATP, tracer ddA-HS-K-125IY; design: species or system rabbit; settings: concentration of non-tagged antigen which inhibits 50% of the antigen-antibody binding
Text: The polyclonal antibodies were produced in the rabbit, according to standard methods.
The antibodies having an affinity for the ddNTP derivatives can be identified by immunological techniques either by means of immunoenzymatic determinations or by means of radioimmunological determinations (RIA).
The specificity of these antibodies was studied in relation to different analogues of ddATP.

[2] = human, in vivo
Description: Blood samples were collected from patients infected with HIV-1 and undergoing treatment comprising administration of ddI. The patients were under the supervision of Professor P. Dellamonica at the Archet Hospital in Nice. The blood samples were collected using cell preparation tubes (CPT) at the rate of two 4-ml tubes for each of the 4 patients participating in this study. Quantification of the ddI in the plasma was performed for each patient and expressed in ddI equivalents. Intracellular quantification of ddATP was performed after chromatography (on Sep Pak anionic cartridge) of the cellular lysates. For each fraction (500 μl), the cellular content of ddATP was determined directly and expressed in ddATP equivalents; quantification was then performed after dephosphorylation and expressed in ddA equivalents.

blood monocyte cells = test: In vitro cell model: blood monocyte cells incubated with ddI, RIA of supernatant ddI and intracellular ddATP after Sep Pak anionic cartridge; type: in vitro ADME, human; settings: for Intracellular content in ddATP eq. (pmoles/10^6) cells: fractions 32-37
Description: Separation by anionic chromatography of the different phosphorylated metabolites stemming from the cellular metabolism of the ddI (ddIMP, ddAMP, ddADP and ddATP) was performed on Sep Pak anionic cartridge by means of a stepwise gradient using different concentrations of KCl (6 ml KCl 50 mM, 10 ml KCl 100 mM and 6 ml KCl 250 mM).
A certain number of controls were performed on an in vitro cell model. After separation by density gradient on Ficoll, the blood monocyte cells were incubated with different concentrations of ddI in the RPMI (at the level of 5×10^5 cells per ml).
The immunoreactivity present in the supernatant was expressed in equivalents (eq.) ddI established in relation to a ddI reference curve, and illustrated in Table 2 below. The ddATP immunoreactivity corresponds to the sum of the immunoreactivities present in the fractions 32-37 stemming from the separation of the intracellular contents on Sep Pak anionic cartridge. The immunoreactivity was expressed in ddATP equivalents in relation to a ddATP reference curve, and is also illustrated in Table 2 below.
The nature of the immunoreactive material present in the culture supernatant and in the intracellular medium was controlled by chromatography on a Sep Pak anionic cartridge. and detected by radioimmunological quantitation. […] This is shown in attached FIG. 2.

Question: For `Nc1ccn(C2CSC(CO)O2)c(=O)n1` (centres unmarked) [3TC, 2′,3′-dideoxyo-3′-thiacytidine], which IC50 [1] is on record?
Answer: Its IC50 is 200 µM.

Question: For `Nc1ncnc2c1ncn2[C@@H]1O[C@H](COP(=O)(O)OP(=O)(O)O)[C@@H](O)[C@H]1O` [ADP], which IC50 [1] is on record?
Answer: The IC50 was > 1000 µM.

Question: For `Nc1ncnc2c1ncn2[C@@H]1O[C@H](COP(=O)(O)O)[C@@H](O)[C@H]1O` [AMP], which IC50 [1] is on record?
Answer: The IC50 was > 1000 µM.

Question: With `Nc1ncnc2c1ncn2[C@@H]1O[C@H](COP(=O)(O)OP(=O)(O)OP(=O)(O)O)[C@@H](O)[C@H]1O` [ATP] as the compound, how does the IC50 [1] read?
Answer: Its IC50 is 36 µM.

Question: With `Nc1ncnc2nc[nH]c12` [adenine] as the compound, how does the IC50 [1] read?
Answer: The IC50 was 9 µM.

Question: Which IC50 [1] does the source give for `Nc1ncnc2c1ncn2[C@@H]1O[C@H](CO)[C@@H](O)[C@H]1O` [adenosine] here?
Answer: The IC50 was 2.4 µM.

Question: Which IC50 [1] does the source give for `Nc1ncnc2c1ncn2C1CC(O)C(CO)O1` (centres unmarked) [dA] here?
Answer: The IC50 was 0.3 µM.

Question: With `Nc1ncnc2c1ncn2[C@H]1CC[C@@H](CO)O1` [ddA, 2′,3′-dideoxyadenosine] as the compound, how does the IC50 [1] read?
Answer: Its IC50 is 0.0004 µM.

Question: Which IC50 [1] does the source give for `Nc1ncnc2c1ncn2[C@H]1CC[C@@H](COP(=O)(O)OP(=O)(O)OP(=O)(O)O)O1` [ddATP, 2′,3′-didesoxyadenosine-5′-triphosphate] here?
Answer: Its IC50 is 0.0011 µM.

Question: Which IC50 [1] does the source give for `Nc1ccn([C@H]2CC[C@@H](CO)O2)c(=O)n1` [ddC] here?
Answer: The IC50 was > 1000 µM.

Question: Which results are given for `O=c1[nH]cnc2c1ncn2[C@H]1CC[C@@H](CO)O1` [ddI]?
Answer: IC50 [1]: 0.002 µM; plasma concentrations [2]: 2-6×10^−6; intracellular immunoreactive content eluted in the elution volume of ddATP (yield) (blood monocyte cells; Sep Pak anionic cartridge): 92%; share of supernatant immunoreactivity in fractions 1 to 5 (elution volume of ddI) (blood monocyte cells; culture supernatants n=4, Sep Pak anionic cartridge): 100%; Concentration of ddI of the supernatant in ddI eq. (blood monocyte cells; incubated ddI 1 × 10^−4 M): 130 µM and 150 µM; Concentration of ddI of the supernatant in ddI eq. (M) (blood monocyte cells; incubated ddI 1 × 10^−5 M): 3.8 ± 0.34 × 10^−5 (n = 2) M; Intracellular content in ddATP eq. (pmoles/10^6) cells (blood monocyte cells; incubated ddI 1 × 10^−5 M): 10.4 ± 0.6 (n = 2) pmoles/10^6 cells; Concentration of ddI of the supernatant in ddI eq. (M) (blood monocyte cells; incubated ddI 1 × 10^−7 M): 2.74 × 10^−7 (n = 1) M; Intracellular content in ddATP eq. (pmoles/10^6) cells (blood monocyte cells; incubated ddI 1 × 10^−7 M): 0.15 (n = 1) pmoles/10^6 cells; Concentration of ddI of the supernatant in ddI eq. (M) (blood monocyte cells; incubated ddI 5 × 10^−6 M): 5.74 × 10^−6 (n = 1) M; Intracellular content in ddATP eq. (pmoles/10^6) cells (blood monocyte cells; incubated ddI 5 × 10^−6 M): 1.8 (n = 1) pmoles/10^6 cells; ddI in the cells (blood monocyte cells; no immunoreactive material at the retention time of ddI): not detectable

Question: Which IC50 [1] does the source give for `Nc1ncnc2c1ncn2C1CCC(COC(=O)CC(O)(CC(=O)O)C(=O)O)O1` (centres unmarked) [isostere of ddATP, 5′-O-(3,4-dicarboxy-3-hydroxy)butanoate-2′,3′-didesoxyadenosine] here?
Answer: The IC50 was 5.2e-05 µM.
